# Assay results reported in PMC3864132 (Cancer immunology, immunotherapy : CII, 2013).
# Legend:
# [1] = system: metastatic melanoma patients; settings: in combination with IL-2, metastatic melanoma patients; cited from earlier work
# [2] = system: HHD×ERG^pb/pb mice; settings: mouse, in vivo; SD
# [3] = system: HHD mice; settings: mean from 3 mice ± SD
Substance,Median overall survival [1],ERG295 responsive T-cells [2],ERG295 responsive cells per million splenocytes [2],"ERG295 responsive cells per million splenocytes ([3]; HHD mice around 16 weeks old, 1 immunization)","ERG295 responsive T-cells ([3]; HHD mice, 3 immunizations at 7-day intervals)"
"gp100:209:217(210M): HLA-A*0201 restricted melanoma epitope (IMDQVPFSV; UniProt P40967 209-217, looked up, variant T210M)",significantly improved median overall survival,,,,
QLWQFLLEL [ERG295],,305 ± 49,177 ± 51 per million splenocytes,275 ± 45 per million splenocytes,405 ± 120
